Where two headings read alike, the source gives them in different places.
Key:
[1] = test system: Bcr-Abl tyrosine kinase; conditions: more potent than Imatinib; cited from earlier work
[2] = test system: patients with acute ischemic stroke treated with intravenous thrombolysis; test: Hemorrhagic transformations and parenchymatous hemorrhages on post-treatment CT or MR; type: in vivo, human
Experimental: (§1) Occurrence and severity of hemorrhagic transformation, intracerebral hemorrhage and cerebral edema on post-treatment computer tomography (CT) or magnetic resonance imaging (MR) were among secondary outcomes. Others were neurological outcome at 2 hours, 24 hours and 7 days after initiation of intravenous thrombolysis, functional outcome at 3 months and infarct volume at 7 days. Infarct volume evaluation will be addressed in a following publication.

[3] = test system: patients with acute ischemic stroke treated with intravenous thrombolysis; conditions: Imatinib treated patients
Experimental: as §1
Clinical assessments, including determination of the NIHSS score were performed before intravenous thrombolysis and start of study treatment (baseline), 2 hours (day 0), day 1 and then daily until day 7. A final NIHSS score was included in the 3 months follow up examination. Assessment of any adverse event was done daily from day 0 to day 7, and finally at 3 months. CT scan was performed at baseline, 24 hours (accepted interval 22-36 hours) and, optionally, at 7 days, MRI at 24 h (accepted interval as for CT) and at 7 days. […] At three months functional status was evaluated using the modified Rankin Scale (mRS) score. […]
When looking at separate time points, linear regression with robust standard errors was used, while adjusting for thrombectomy. […] The association between treatment groups and functional independence was analyzed using odds ratios. […]

[4] = test system: patients with acute ischemic stroke treated with intravenous thrombolysis; test: Neurological outcome (NIHSS score); type: in vivo, human; conditions: for mean lowering of the NIHSS score, estimate in brackets / mean lowering (improvement) of the NIHSS score: after adjustment for thrombectomy
Experimental: as §1
Clinical assessments, including determination of the NIHSS score were performed before intravenous thrombolysis and start of study treatment (baseline), 2 hours (day 0), day 1 and then daily until day 7. A final NIHSS score was included in the 3 months follow up examination. Assessment of any adverse event was done daily from day 0 to day 7, and finally at 3 months. CT scan was performed at baseline, 24 hours (accepted interval 22-36 hours) and, optionally, at 7 days, MRI at 24 h (accepted interval as for CT) and at 7 days. Definitions of hemorrhagic transformations, parenchymatous hemorrhages and edema are described in an earlier publication R1 and also listed in Table 1. At three months functional status was evaluated using the modified Rankin Scale (mRS) score. The three months follow up examinations were performed blindly at a different hospital than the one responsible for the acute treatment.
When looking at separate time points, linear regression with robust standard errors was used, while adjusting for thrombectomy. […] The choice of using AR1 correlation was made by comparing the Akaike Information Criterion to a model without AR1 correlation. […] The association between treatment groups and functional independence was analyzed using odds ratios. The statistical software Stata v.13 was used.

[5] = clinical; conditions: human, plasma, po
[6] = test system: patients with acute ischemic stroke treated with intravenous thrombolysis; test: Cerebral edema on post-treatment CT or MR; type: in vivo, human
Experimental: as §1

[7] = oral

Cc1cn(-c2cc(NC(=O)c3ccc(C)c(Nc4nccc(-c5cccnc5)n4)c3)cc(C(F)(F)F)c2)cn1 [Nilotinib]
potency relative to Imatinib in inhibiting Bcr-Abl tyrosine kinase activity [1]: 10-30 fold

Cc1ccc(NC(=O)c2ccc(CN3CCN(C)CC3)cc2)cc1Nc1nccc(-c2cccnc2)n1 [Imatinib]
number of hemorrhagic transformations ([2]; high dose): 3 | parenchymatous hemorrhages, PH1 type ([2]; high dose): one | remote parenchymatous hemorrhages of the milder grade (PHr1) ([2]; high dose group): 3 | hemorrhages reported ([2]; initiation of Imatinib within 5 hours after stroke onset, high dose group, of 5 treated): no hemorrhages | hemorrhages reported ([2]; initiation of Imatinib within 5 hours after stroke onset, low dose group, of 8 treated): 4 | hemorrhages reported ([2]; initiation of Imatinib within 5 hours after stroke onset, medium dose, of to treated): 5 | number of hemorrhagic transformations ([2]; low dose group): 6 | remote parenchymatous hemorrhages of the milder grade (PHr1) ([2]; low dose group): one | number of hemorrhagic transformations ([2]; medium dose): 7 | parenchymatous hemorrhages, PH2 ([2]; medium dose): one | remote parenchymatous hemorrhages of the milder grade (PHr1) ([2]; medium dose group): one | hemorrhages reported ([2]; reperfusion treatment completed within 4.5 hours, high dose group, of 7 treated): no hemorrhages | hemorrhages reported ([2]; reperfusion treatment completed within 4.5 hours, low dose, of 9): 5 | hemorrhages reported ([2]; reperfusion treatment completed within 4.5 hours, medium dose, of 11 treated): 6 | severe disability (5 points on mRS) or death (6 points) [3]: did not occur | improvement on the NIHSS per 100 mg Imatinib ([4]; after adjustment for the effect of thrombectomy): 0.6 points | lowering of the adjusted mean NIHSS score compared to control, estimate in brackets ([4]; high dose, 3 months): −4.81 | lowering of the adjusted mean NIHSS score compared to control ([4]; high dose, 3 months, p<0.019): 5 points | lowering of the adjusted mean NIHSS score compared to control, estimate in brackets ([4]; high dose, 7 days): −5.68 | lowering of the adjusted mean NIHSS score compared to control ([4]; high dose, 7 days, p<0.019): 6 points | mean lowering of the NIHSS score, estimate in brackets ([4]; high dose): −4.94 | mean lowering (improvement) of the NIHSS score ([4]; high dose, p<0.012): 5 points | lowering of the adjusted mean NIHSS score compared to control ([4]; high dose, day 1, p<0.018): 5 points | mean lowering of the NIHSS score, estimate in brackets ([4]; low dose): −2.30 | mean lowering (improvement) of the NIHSS score ([4]; low dose, p<0.259): 2 points | mean lowering of the NIHSS score, estimate in brackets ([4]; medium dose): −3.05 | mean lowering (improvement) of the NIHSS score ([4]; medium dose, p<0.106): 3 points | neurological outcome ([4]; treatment with Imatinib vs control): significantly improved neurological outcome | concentration at 3 h ([5]; 400 mg): 996 ng/mL | concentration at 3 h ([5]; 600 mg): 1570 ng/mL | concentration at 3 h ([5]; 800 mg): 1730 ng/mL | number of cerebral edema (CED 1-3) ([6]; high dose): to | patients with the mildest form of edema, CED 1 ([6]; high dose): to | patients with CED 1 at follow up ([6]; initiation of Imatinib within 5 hours after stroke onset, high dose group, of 5 patients): 2 | patients with CED 1 or 2 ([6]; initiation of Imatinib within 5 hours after stroke onset, low dose, of 8 patients): 4 | patients with CED 1 or 2 ([6]; initiation of Imatinib within 5 hours after stroke onset, medium dose, of to patients): 5 | number of cerebral edema (CED 1-3) ([6]; low dose): 6 | patients with the mildest form of edema, CED 1 ([6]; low dose): 4 | moderately severe edema (CED-2) ([6]; low dose group): Two | moderately severe edema (CED-2) ([6]; medium dose): 1 | number of cerebral edema (CED 1-3) ([6]; medium dose): 8 | patients with the mildest form of edema, CED 1 ([6]; medium dose): 7 | patients with CED 1 ([6]; reperfusion treatment completed within 4.5 hours, high dose group, of 7 patients): 4 | patients with CED 1 or 2 ([6]; reperfusion treatment completed within 4.5 hours, low dose, of nine): 4 | patients with CED 1 or 2 ([6]; reperfusion treatment completed within 4.5 hours, medium dose, of 11): 6 | mean plasma concentration of Imatinib, Day 0-Day 6 ([7]; 400 mg daily): 530 ng/mL | mean plasma concentration of Imatinib, Day 0-Day 6 ([7]; 600 mg daily): 1094 ng/mL | mean plasma concentration of Imatinib, Day 0-Day 6 ([7]; 800 mg daily): 2054 ng/mL
